In assay [1] the target is T1, JAK1(JH1domain-catalytic) (Homo sapiens, UniProt P23458).
T1 construct: JAK1(JH1domain-catalytic); purchased Eurofins DiscoverX KINOMEscan
Description: KINOMEscan 1 μM, JAK1(JH1domain-catalytic). Type of assay: binding. To be noted: 1000 nM; Entrez JAK1; read-out: Percent Control. An excerpt:
(§1) Supplement cells-12-00287-s001.zip/File S2. KinomeScan data for the CAMKK2 probe and negative control.xlsx, sheet "SGC-CAMKK2-1" | column: Percent Control

Assay [2] deals with T2, PKNB(M.tuberculosis) (Mycobacterium tuberculosis, UniProt P9WI81).
T2 construct: purchased Eurofins DiscoverX KINOMEscan
Description: KINOMEscan 1 μM, PKNB(M.tuberculosis). To be noted: 1000 nM; Entrez pknB; read-out: Percent Control. Type of assay: binding.
Source text: as §1

Assay [3] addresses T3, PDPK1 (Homo sapiens, UniProt O15530).
T3 construct: purchased Eurofins DiscoverX KINOMEscan
Description: KINOMEscan 1 μM, PDPK1. Type of assay: binding. To be noted: 1000 nM; Entrez PDPK1; read-out: Percent Control.
Source text: as §1

Assay [4] deals with T4, DAPK1 (Homo sapiens, UniProt P53355).
T4 construct: purchased Eurofins DiscoverX KINOMEscan
Description: KINOMEscan 1 μM, DAPK1. The format is binding. To be noted: 1000 nM; Entrez DAPK1; read-out: Percent Control.
Source text: as §1

The target of assay [5] is T5, HASPIN (Homo sapiens, UniProt Q8TF76).
T5 construct: purchased Eurofins DiscoverX KINOMEscan
Description: KINOMEscan 1 μM, HASPIN. Type of assay: binding. To be noted: 1000 nM; Entrez GSG2; read-out: Percent Control.
Source text: as §1

The target of assay [6] is T6, MST1 (Homo sapiens, UniProt Q13043).
T6 construct: purchased Eurofins DiscoverX KINOMEscan
Description: KINOMEscan 1 μM, MST1. The format is binding. To be noted: 1000 nM; Entrez STK4; read-out: Percent Control.
Source text: as §1

Assay [7] has as its target T7, PCTK1 (Homo sapiens, UniProt Q00536).
T7 construct: purchased Eurofins DiscoverX KINOMEscan
Description: DiscoverX KINOMEscan binding assay at 1 μM, PCTK1. To be noted: PCTK1 (CDK16); Compound Concentration 1000 nM; read-out: Percent Control.
Source text: as §1

Assay [8] has as its target T8, PIP5K2B (Homo sapiens, UniProt P78356).
T8 construct: purchased Eurofins DiscoverX KINOMEscan
Description: DiscoverX KINOMEscan binding assay at 1 μM, PIP5K2B. To be noted: PIP5K2B (PIP4K2B); Compound Concentration 1000 nM; read-out: Percent Control.
Source text: as §1

Assay [9] deals with T9, TRPM6 (Homo sapiens, UniProt Q9BX84).
T9 construct: purchased Eurofins DiscoverX KINOMEscan
Description: KINOMEscan at 1 μM, TRPM6. Type of assay: binding. To be noted: 1000 nM, read-out: Percent Control. An excerpt:
(§2) Supplement cells-12-00287-s001.zip/File S2. KinomeScan data for the CAMKK2 probe and negative control.xlsx, sheet "SGC-CAMKK2-1N" | column: Percent Control

Assay [10] has as its target T10, PIK3CA(E545A) (Homo sapiens, UniProt P42336, E545A).
T10 construct: purchased Eurofins DiscoverX KINOMEscan
Description: KINOMEscan at 1 μM, PIK3CA(E545A). Type of assay: binding. To be noted: 1000 nM, read-out: Percent Control.
Source text: as §2

Assay [11] deals with T11, KIT(L576P) (Homo sapiens, UniProt P10721, L576P).
T11 construct: purchased Eurofins DiscoverX KINOMEscan
Description: KINOMEscan at 1 μM, KIT(L576P). Type of assay: binding. To be noted: 1000 nM, read-out: Percent Control.
Source text: as §2

The target of assay [12] is T12, BMPR2 (Homo sapiens, UniProt Q13873).
T12 construct: purchased Eurofins DiscoverX KINOMEscan
Description: KINOMEscan at 1 μM, BMPR2. Type of assay: binding. To be noted: 1000 nM, read-out: Percent Control.
Source text: as §2

For assay [13], the target named is T13, TAOK2 (Homo sapiens, UniProt Q9UL54).
T13 construct: purchased Eurofins DiscoverX KINOMEscan
Description: KINOMEscan at 1 μM, TAOK2. The format is binding. To be noted: 1000 nM, read-out: Percent Control.
Source text: as §2

Assay [14] deals with T14, RAF1 (Homo sapiens, UniProt P04049).
T14 construct: purchased Eurofins DiscoverX KINOMEscan
Description: KINOMEscan at 1 μM, RAF1. To be noted: 1000 nM, read-out: Percent Control. The format is binding.
Source text: as §2

Assay [15] addresses T15, TGFBR1 (Homo sapiens, UniProt P36897).
T15 construct: purchased Eurofins DiscoverX KINOMEscan
Description: KINOMEscan at 1 μM, TGFBR1. Type of assay: binding. To be noted: 1000 nM, read-out: Percent Control.
Source text: as §2

In assay [16] the target is T16, PCTK2 (Homo sapiens, UniProt Q00537).
T16 construct: purchased Eurofins DiscoverX KINOMEscan
T16 sequence (Q00537 whole entry): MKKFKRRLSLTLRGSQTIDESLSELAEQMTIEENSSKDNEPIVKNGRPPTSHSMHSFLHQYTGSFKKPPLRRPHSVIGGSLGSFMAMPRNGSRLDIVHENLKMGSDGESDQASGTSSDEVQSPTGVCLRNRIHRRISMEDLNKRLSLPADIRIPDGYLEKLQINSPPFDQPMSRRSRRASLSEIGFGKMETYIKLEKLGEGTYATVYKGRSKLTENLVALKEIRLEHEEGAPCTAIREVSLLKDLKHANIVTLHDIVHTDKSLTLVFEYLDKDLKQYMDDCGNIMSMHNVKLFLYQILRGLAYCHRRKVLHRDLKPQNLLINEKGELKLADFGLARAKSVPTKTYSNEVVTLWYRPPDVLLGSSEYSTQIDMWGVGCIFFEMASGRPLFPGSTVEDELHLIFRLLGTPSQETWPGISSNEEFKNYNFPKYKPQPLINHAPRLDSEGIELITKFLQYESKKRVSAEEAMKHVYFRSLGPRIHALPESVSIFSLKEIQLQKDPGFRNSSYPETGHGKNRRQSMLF
Description: KINOMEscan at 1 μM, PCTK2. Type of assay: binding. To be noted: 1000 nM, read-out: Percent Control.
Source text: as §2

Assay [17] addresses T17, BRAF (Homo sapiens, UniProt P15056).
T17 construct: purchased Eurofins DiscoverX KINOMEscan
Description: KINOMEscan at 1 μM, BRAF. Type of assay: binding. To be noted: 1000 nM, read-out: Percent Control.
Source text: as §2

Assay [18] has as its target T18, FLT3(R834Q) (Homo sapiens, UniProt P36888, R834Q).
T18 construct: purchased Eurofins DiscoverX KINOMEscan
Description: KINOMEscan at 1 μM, FLT3(R834Q). Type of assay: binding. To be noted: 1000 nM, read-out: Percent Control.
Source text: as §2

Assay [19] deals with T19, AKT2 (Homo sapiens, UniProt P31751).
T19 construct: purchased Eurofins DiscoverX KINOMEscan
Description: KINOMEscan at 1 μM, AKT2. The format is binding. To be noted: 1000 nM, read-out: Percent Control.
Source text: as §2

Assay [20] concerns the target T20, VEGFR2 (Homo sapiens, UniProt P35968).
T20 construct: purchased Eurofins DiscoverX KINOMEscan
Description: KINOMEscan at 1 μM, VEGFR2. To be noted: 1000 nM, read-out: Percent Control. Type of assay: binding.
Source text: as §2

For assay [21], the target named is T21, EPHB1 (Homo sapiens, UniProt P54762).
T21 construct: purchased Eurofins DiscoverX KINOMEscan
Description: KINOMEscan at 1 μM, EPHB1. Type of assay: binding. To be noted: 1000 nM, read-out: Percent Control.
Source text: as §2

The target in assay [22] is T22, MAP4K3 (Homo sapiens, UniProt Q8IVH8).
T22 construct: purchased Eurofins DiscoverX KINOMEscan
Description: KINOMEscan at 1 μM, MAP4K3. Type of assay: binding. To be noted: 1000 nM, read-out: Percent Control.
Source text: as §2

In assay [23] the target is T23, MET (Homo sapiens, UniProt P08581).
T23 construct: purchased Eurofins DiscoverX KINOMEscan
Description: KINOMEscan at 1 μM, MET. The format is binding. To be noted: 1000 nM, read-out: Percent Control.
Source text: as §2

Assay [24] deals with T24, RSK1(Kin.Dom.2-C-terminal) (Homo sapiens, UniProt Q15418).
T24 construct: RSK1(Kin.Dom.2-C-terminal); purchased Eurofins DiscoverX KINOMEscan
Description: KINOMEscan at 1 μM, RSK1(Kin.Dom.2-C-terminal). The format is binding. To be noted: 1000 nM, read-out: Percent Control.
Source text: as §2

Assay [25] concerns the target T25, WNK3 (Homo sapiens, UniProt Q9BYP7).
T25 construct: purchased Eurofins DiscoverX KINOMEscan
Description: KINOMEscan at 1 μM, WNK3. Type of assay: binding. To be noted: 1000 nM, read-out: Percent Control.
Source text: as §2

Assay [26] has as its target T26, FAK (Homo sapiens, UniProt Q05397).
T26 construct: purchased Eurofins DiscoverX KINOMEscan
Description: KINOMEscan at 1 μM, FAK. Type of assay: binding. To be noted: 1000 nM, read-out: Percent Control.
Source text: as §2

Assay [27] addresses T27, CSNK2A2 (Homo sapiens, UniProt P19784).
T27 construct: purchased Eurofins DiscoverX KINOMEscan
Description: KINOMEscan at 1 μM, CSNK2A2. Type of assay: binding. To be noted: 1000 nM, read-out: Percent Control.
Source text: as §2

Assay [28] has as its target T28, ADCK4 (Homo sapiens, UniProt Q96D53).
T28 construct: purchased Eurofins DiscoverX KINOMEscan
Description: KINOMEscan at 1 μM, ADCK4. Type of assay: binding. To be noted: 1000 nM, read-out: Percent Control.
Source text: as §2

The target in assay [29] is T29, DCAMKL3 (Homo sapiens, UniProt Q9C098).
T29 construct: purchased Eurofins DiscoverX KINOMEscan
Description: KINOMEscan at 1 μM, DCAMKL3. The format is binding. To be noted: 1000 nM, read-out: Percent Control.
Source text: as §2

For assay [30], the target named is T30, EGFR(L861Q) (Homo sapiens, UniProt P00533, L861Q).
T30 construct: purchased Eurofins DiscoverX KINOMEscan
Description: KINOMEscan binding assay at 1 μM, EGFR(L861Q). To be noted: Compound Concentration 1000 nM; read-out: Percent Control.
Source text: as §2

The target of assay [31] is T31, EGFR(S752-I759del) (Homo sapiens, UniProt P00533, DEL752-759).
T31 construct: purchased Eurofins DiscoverX KINOMEscan
T31 sequence (P00533 with tags, fused parts or gaps DEL752-759 limits assumed): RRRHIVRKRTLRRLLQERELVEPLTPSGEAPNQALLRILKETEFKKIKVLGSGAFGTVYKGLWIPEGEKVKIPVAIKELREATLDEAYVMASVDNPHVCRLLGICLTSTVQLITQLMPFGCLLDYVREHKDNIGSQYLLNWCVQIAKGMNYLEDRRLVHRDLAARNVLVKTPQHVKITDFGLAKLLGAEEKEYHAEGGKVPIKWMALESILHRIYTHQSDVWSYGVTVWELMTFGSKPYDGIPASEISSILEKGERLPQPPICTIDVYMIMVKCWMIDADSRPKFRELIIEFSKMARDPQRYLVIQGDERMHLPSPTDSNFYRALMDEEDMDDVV
Description: KINOMEscan binding assay at 1 μM, EGFR(S752-I759del). To be noted: Compound Concentration 1000 nM; read-out: Percent Control.
Source text: as §2

The target of assay [32] is T32, FLT3(K663Q) (Homo sapiens, UniProt P36888, K663Q).
T32 construct: purchased Eurofins DiscoverX KINOMEscan
Description: KINOMEscan binding assay at 1 μM, FLT3(K663Q). To be noted: Compound Concentration 1000 nM; read-out: Percent Control.
Source text: as §2

Assay [33] concerns the target T33, HCK (Homo sapiens, UniProt P08631).
T33 construct: purchased Eurofins DiscoverX KINOMEscan
Description: KINOMEscan binding assay at 1 μM, HCK. To be noted: Compound Concentration 1000 nM; read-out: Percent Control.
Source text: as §2

Assay [34] addresses T34, MARK4 (Homo sapiens, UniProt Q96L34).
T34 construct: purchased Eurofins DiscoverX KINOMEscan
Description: KINOMEscan binding assay at 1 μM, MARK4. To be noted: Compound Concentration 1000 nM; read-out: Percent Control.
Source text: as §2

Assay [35] deals with T35, PRKG1 (Homo sapiens, UniProt Q13976).
T35 construct: purchased Eurofins DiscoverX KINOMEscan
Description: KINOMEscan binding assay at 1 μM, PRKG1. To be noted: Compound Concentration 1000 nM; read-out: Percent Control.
Source text: as §2

T17 sequence (P15056 whole entry): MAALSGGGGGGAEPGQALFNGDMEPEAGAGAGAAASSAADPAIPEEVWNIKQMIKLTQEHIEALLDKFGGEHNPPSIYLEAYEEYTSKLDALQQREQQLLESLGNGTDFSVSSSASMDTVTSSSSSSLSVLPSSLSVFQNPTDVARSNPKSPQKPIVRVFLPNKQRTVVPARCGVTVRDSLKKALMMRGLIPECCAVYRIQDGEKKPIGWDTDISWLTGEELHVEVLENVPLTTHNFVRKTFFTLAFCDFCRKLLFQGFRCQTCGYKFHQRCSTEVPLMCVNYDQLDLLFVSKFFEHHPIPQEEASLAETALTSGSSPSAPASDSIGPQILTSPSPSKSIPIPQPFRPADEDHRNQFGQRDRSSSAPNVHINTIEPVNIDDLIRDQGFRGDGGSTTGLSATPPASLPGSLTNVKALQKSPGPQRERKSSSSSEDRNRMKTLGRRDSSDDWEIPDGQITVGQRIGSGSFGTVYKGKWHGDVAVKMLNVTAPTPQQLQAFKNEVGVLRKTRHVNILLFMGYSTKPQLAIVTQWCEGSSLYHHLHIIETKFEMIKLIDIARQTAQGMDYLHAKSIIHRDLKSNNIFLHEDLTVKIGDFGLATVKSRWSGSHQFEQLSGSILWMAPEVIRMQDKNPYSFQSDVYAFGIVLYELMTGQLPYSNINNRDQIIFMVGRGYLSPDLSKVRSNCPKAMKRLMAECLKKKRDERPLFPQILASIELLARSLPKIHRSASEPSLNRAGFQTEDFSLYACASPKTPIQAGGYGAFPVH
T26 sequence (Q05397 whole entry): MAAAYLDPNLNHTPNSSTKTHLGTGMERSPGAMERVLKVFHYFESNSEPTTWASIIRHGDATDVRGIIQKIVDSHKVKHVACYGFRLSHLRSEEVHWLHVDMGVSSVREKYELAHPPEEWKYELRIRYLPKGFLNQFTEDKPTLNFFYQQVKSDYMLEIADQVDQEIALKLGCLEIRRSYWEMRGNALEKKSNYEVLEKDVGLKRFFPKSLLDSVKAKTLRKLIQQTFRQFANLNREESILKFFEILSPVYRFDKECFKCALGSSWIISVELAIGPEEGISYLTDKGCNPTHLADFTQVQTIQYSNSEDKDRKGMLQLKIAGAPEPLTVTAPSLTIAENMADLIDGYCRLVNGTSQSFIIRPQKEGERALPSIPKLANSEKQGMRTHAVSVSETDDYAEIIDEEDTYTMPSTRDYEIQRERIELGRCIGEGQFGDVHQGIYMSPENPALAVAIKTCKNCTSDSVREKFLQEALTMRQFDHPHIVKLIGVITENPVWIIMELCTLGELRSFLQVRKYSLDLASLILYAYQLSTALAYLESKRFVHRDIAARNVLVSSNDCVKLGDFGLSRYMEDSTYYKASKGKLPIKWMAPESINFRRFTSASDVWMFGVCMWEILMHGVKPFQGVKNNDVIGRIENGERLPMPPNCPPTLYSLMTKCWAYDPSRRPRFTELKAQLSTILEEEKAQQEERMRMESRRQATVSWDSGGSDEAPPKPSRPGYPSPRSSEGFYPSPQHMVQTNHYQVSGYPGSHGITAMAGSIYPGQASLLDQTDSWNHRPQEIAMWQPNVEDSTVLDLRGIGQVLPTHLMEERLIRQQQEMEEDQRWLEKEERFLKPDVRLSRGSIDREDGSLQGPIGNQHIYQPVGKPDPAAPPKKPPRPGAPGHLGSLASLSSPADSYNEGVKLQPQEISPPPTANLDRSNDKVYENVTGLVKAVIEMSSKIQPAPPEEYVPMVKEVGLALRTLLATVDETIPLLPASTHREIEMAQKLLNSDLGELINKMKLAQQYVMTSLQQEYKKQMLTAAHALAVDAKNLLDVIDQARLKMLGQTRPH
T1 sequence (P23458 854-1154 limits assumed): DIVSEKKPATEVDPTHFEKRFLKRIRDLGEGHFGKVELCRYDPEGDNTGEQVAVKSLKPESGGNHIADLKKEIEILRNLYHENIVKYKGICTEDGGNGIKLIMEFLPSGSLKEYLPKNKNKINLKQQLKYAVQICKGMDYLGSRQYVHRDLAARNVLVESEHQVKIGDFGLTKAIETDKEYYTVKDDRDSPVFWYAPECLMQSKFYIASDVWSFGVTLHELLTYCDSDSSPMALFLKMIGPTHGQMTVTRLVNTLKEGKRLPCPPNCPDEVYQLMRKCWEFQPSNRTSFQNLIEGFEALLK
T20 sequence (P35968 20-1356): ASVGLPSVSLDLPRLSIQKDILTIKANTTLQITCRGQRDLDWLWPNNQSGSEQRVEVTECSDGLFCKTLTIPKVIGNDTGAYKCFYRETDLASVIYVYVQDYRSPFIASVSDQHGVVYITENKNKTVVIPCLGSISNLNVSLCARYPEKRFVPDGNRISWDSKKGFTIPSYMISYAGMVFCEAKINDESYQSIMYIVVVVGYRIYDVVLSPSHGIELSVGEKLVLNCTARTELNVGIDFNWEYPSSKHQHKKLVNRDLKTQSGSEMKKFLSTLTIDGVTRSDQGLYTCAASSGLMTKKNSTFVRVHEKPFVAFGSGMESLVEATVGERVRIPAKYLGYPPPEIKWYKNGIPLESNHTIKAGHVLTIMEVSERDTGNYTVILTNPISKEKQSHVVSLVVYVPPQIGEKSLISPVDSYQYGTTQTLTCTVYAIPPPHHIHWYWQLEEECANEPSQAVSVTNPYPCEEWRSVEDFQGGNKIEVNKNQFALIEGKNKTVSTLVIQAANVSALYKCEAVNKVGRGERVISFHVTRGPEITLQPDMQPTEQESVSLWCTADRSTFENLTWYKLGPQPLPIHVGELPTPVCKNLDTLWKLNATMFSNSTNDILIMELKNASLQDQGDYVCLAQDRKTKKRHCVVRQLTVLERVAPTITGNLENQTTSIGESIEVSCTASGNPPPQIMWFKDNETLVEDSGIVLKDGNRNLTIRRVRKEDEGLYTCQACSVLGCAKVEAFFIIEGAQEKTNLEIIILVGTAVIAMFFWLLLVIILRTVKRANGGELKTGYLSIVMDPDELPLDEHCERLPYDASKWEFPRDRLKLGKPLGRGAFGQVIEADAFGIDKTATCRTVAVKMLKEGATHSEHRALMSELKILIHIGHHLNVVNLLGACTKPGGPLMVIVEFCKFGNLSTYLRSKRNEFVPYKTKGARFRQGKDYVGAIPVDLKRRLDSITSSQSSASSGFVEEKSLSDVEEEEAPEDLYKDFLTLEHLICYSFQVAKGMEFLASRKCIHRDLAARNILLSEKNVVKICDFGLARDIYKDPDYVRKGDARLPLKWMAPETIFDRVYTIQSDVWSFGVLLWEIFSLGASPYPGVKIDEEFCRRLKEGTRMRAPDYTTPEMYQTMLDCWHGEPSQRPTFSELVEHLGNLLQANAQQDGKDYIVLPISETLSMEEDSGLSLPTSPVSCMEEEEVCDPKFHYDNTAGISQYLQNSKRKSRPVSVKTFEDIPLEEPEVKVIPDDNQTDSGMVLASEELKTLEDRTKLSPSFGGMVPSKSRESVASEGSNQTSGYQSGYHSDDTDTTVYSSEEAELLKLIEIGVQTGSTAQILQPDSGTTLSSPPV
T3 sequence (O15530 whole entry): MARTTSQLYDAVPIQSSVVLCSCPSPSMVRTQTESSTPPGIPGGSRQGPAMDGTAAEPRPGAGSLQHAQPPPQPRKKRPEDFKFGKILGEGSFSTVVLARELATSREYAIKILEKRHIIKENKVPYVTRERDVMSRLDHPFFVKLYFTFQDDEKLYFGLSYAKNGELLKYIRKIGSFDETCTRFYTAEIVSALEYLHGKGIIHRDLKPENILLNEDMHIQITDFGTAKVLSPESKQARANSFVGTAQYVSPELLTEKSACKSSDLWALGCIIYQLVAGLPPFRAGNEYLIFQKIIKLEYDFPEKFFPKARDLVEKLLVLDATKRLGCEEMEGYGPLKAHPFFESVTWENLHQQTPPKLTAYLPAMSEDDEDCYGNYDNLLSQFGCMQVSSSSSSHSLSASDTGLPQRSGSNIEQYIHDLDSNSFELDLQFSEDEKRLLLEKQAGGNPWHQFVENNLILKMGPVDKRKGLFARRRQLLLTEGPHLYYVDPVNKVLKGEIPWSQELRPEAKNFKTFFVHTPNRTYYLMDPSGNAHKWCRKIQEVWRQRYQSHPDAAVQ

For the compound `Cc1cccc(-c2cnc3occ(-c4ccc(C(=O)O)c(C5CCCC5)c4)c3c2)c1` [SGC-CAMKK2-1 (YL-36)], the remaining binding at 1 µM came to 85% in assay [1]; 90% in assay [2]; 95% in assay [3]; 100% in assay [4]; 100% in [5]; 100% in [6]. The remaining binding at 1 µM in assay [7] and in assay [8] was 100% in each case.

In the case of `O=C(O)c1ccc(-c2coc3ncc(-c4ccccc4)cc23)cc1Cl` [SGC-CAMKK2-1N (UNC-YL-83)], the remaining binding at 1 µM in [9] was determined as 53%; in assay [10], 59%; in [11] it was 66%; in [12], 71%; in assay [13] it was 78%; in assay [14], 79%. The remaining binding at 1 µM in assay [15] stood at 80%; in [16], 81%; in assay [17], 84%; in assay [18], 84%; in assay [19], 85%; in assay [20], 90%. Also, the remaining binding at 1 µM in [21] turned out to be 91%; in assay [22], 91%; in assay [23], 91%; in assay [24] it was 94%; in [25], 95%; in assay [26], 96%. Besides, the remaining binding at 1 µM turned out to be 98% in assay [27]; 100% in [28]; 100% in [29]; 100% in [30]; 100% in [31]; 100% in assay [32]. Also, the remaining binding at 1 µM in assay [33], in assay [34] and in assay [35] was 100% in each case.

The record behind these values is paper PMC9856672, “SGC-CAMKK2-1: A Chemical Probe for CAMKK2” (Cells, 2023).
